What all share (assay): DTP human tumour cell line panel, 48 h
Test [1] concerns HL-60.
In test [2] the test system is TK-10.
Test [3] concerns HCT-116.
Test [4] relates to A498.
Test [5] relates to IGROV-1.
The subject of test [6] is OVCAR-4.
In test [7] the test system is SW-620.
In test [8] the test system is SR.
Test [9] deals with OVCAR-8.
In test [10] the test system is SF-268.
For test [11], the system named is EKVX.
In test [12] the test system is BT-549.
The subject of test [13] is U-251.
Test [14] deals with OVCAR-3.
Test [15] concerns ACHN.
Test [16] concerns SNB-75.
Test [17] deals with MDA-N.
Test [18] concerns RXF 393.
Test [19] has as its system HOP-92.
For test [20], the system named is NCI-H226.

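Cells were grown in 96-well plates and exposed to each compound for 48 hours at five concentrations; endpoints were interpolated linearly between bracketing concentrations, or set to the highest concentration if not reached. GI50 is the concentration that inhibits growth by half.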 Active and inactive are the calls of the source. No stated cut-off is given here; in the data, active = GI50 up to about 1.1 µM and inactive = higher. Bounds are passed on as bounds.

Turning to `Cc1ccccc1NC(=O)O/N=C(\Cl)C(C)C`, the GI50 in test [1] was 2.46 µM (inactive); in test [2], 3.94 µM (inactive); in test [3], 2.18 µM (inactive); in [4], 17.9 µM (inactive); in test [5] it was 9.42 µM (inactive); in [6] it was 8.45 µM (inactive). In addition, the GI50 is 1.82 µM (inactive) in test [7]; 2.85 µM (inactive) in [8]; 17.5 µM (inactive) in [9]; 19.3 µM (inactive) in [10]; 2.29 µM (inactive) in [11]; 5.32 µM (inactive) in [12]. For the same molecule, the GI50 was 19.4 µM (inactive) in test [13]; 4.29 µM (inactive) in test [14]; 1.69 µM (inactive) in [15]; 17.1 µM (inactive) in test [16]; 2.72 µM (inactive) in test [17]; 12.6 µM (inactive) in test [18]. Moreover, the values for the GI50 in test [19] and in [20] were 2.28 µM (inactive) and 16 µM (inactive), respectively.

As to `O=C1OC(c2ccccc2)=N/C1=C\c1ccc(Cl)cc1`, the GI50 in test [1], in test [2], in test [3], in test [4], in [5] and in [6] was > 100 µM (inactive) in each case. The GI50 in test [7], in [8], in [9], in test [10], in test [11] and in [12] was > 100 µM (inactive) in each case. The GI50 in test [13], in [14], in [15], in [16], in test [17] and in [18] was > 100 µM (inactive) each time. The GI50 in test [19] and in [20] was > 100 µM (inactive) each time.

With `O=C1C(c2c(O)[nH]c3ccc(S(=O)(=O)O)cc23)=Nc2ccccc21`, the GI50 in test [1] was > 100 µM (inactive); in test [2], > 100 µM (inactive); in test [3], > 100 µM (inactive); in [4], > 100 µM (inactive); in test [5], > 100 µM (inactive); in test [6], 94.4 µM (inactive). Moreover, the GI50 in [7], in [8], in test [9], in [10], in test [11] and in [12] was > 100 µM (inactive) in each case. Also, the GI50 in [13], in test [14], in test [15], in test [16], in [17] and in test [18] was > 100 µM (inactive) throughout. Moreover, the GI50 in test [19] and in test [20] was > 100 µM (inactive) in each case.

Regarding `NNC(=O)C(O)C(O)C(O)CO` (configuration not stated), the GI50 in [1], in [2], in test [3], in test [4], in test [5] and in test [6] was > 100 µM (inactive) each time. In addition, the GI50 in test [7] is > 100 µM (inactive); in [8], 67.8 µM (inactive); in test [9], > 100 µM (inactive); in [10], > 100 µM (inactive); in [11] it was > 100 µM (inactive); in [12], > 100 µM (inactive). In addition, the GI50 in test [13], in test [14], in [15], in [16], in test [17] and in [18] was > 100 µM (inactive) throughout. Further, the GI50 in [19] and in [20] was > 100 µM (inactive) in each case.

As for `O=C(O)C1=C(C(=O)O)N(c2ccncc2)C(c2ccco2)=CC1c1ccccc1[N+](=O)[O-]` (configuration not stated), the GI50 was 2.88 µM (inactive) in test [1]; 6.01 µM (inactive) in [2]; 1.83 µM (inactive) in test [3]; 11.8 µM (inactive) in [4]; 1.85 µM (inactive) in [5]; 13 µM (inactive) in [6]. Further, the GI50 in test [7] is 8.85 µM (inactive); in [8], 2.03 µM (inactive); in test [9] it was 16.7 µM (inactive); in [10], 13.1 µM (inactive); in test [11], 11.2 µM (inactive); in test [12], 13.2 µM (inactive). Moreover, the GI50 in test [13] is 4.92 µM (inactive); in [14], 8.17 µM (inactive); in [15], 1.72 µM (inactive); in test [16] it was 7.4 µM (inactive); in test [17] it was 5.56 µM (inactive); in [18], 7.94 µM (inactive). Moreover, the GI50 in test [19] was 7.06 µM (inactive); in test [20] it was 9.59 µM (inactive).

Consider `O=[N+]([O-])c1cccc(/C=N/NC2=CS(=O)(=O)C=C2)c1`, for which the GI50 was 42.6 µM (inactive) in test [1]; > 100 µM (inactive) in test [2]; > 100 µM (inactive) in test [3]; > 100 µM (inactive) in test [4]; > 100 µM (inactive) in [5]; > 100 µM (inactive) in test [6]. The GI50 in test [7] was > 100 µM (inactive); in [8], > 100 µM (inactive); in test [9] it was > 100 µM (inactive); in test [10], > 100 µM (inactive); in test [11] it was > 100 µM (inactive); in test [12] it was 78.7 µM (inactive). The GI50 in [13] is > 100 µM (inactive); in [14], > 100 µM (inactive); in test [15], > 100 µM (inactive); in test [16], 91 µM (inactive); in test [17], > 100 µM (inactive); in [18], > 100 µM (inactive). Also, the GI50 in test [19] and in test [20] was > 100 µM (inactive) in each case.

In the case of `COc1cc2c(c(OC)c1OC)C(=O)[C@@H]1[C@H]2N1C(=O)NCCCl`, the GI50 in [1] is 29.2 µM (inactive); in [2], > 100 µM (inactive); in test [3], 41.7 µM (inactive); in [4], 70.1 µM (inactive); in [5] it was 33.5 µM (inactive); in test [6] it was 52.4 µM (inactive). Moreover, the GI50 in test [7] was > 100 µM (inactive); in test [8], 46.2 µM (inactive); in test [9], 79.4 µM (inactive); in [10] it was 76.9 µM (inactive); in test [11] it was 53 µM (inactive); in test [12], 80.5 µM (inactive). Besides, the GI50 in [13] was 37.1 µM (inactive); in [14], 38.4 µM (inactive); in [15], 50.5 µM (inactive); in [16], 40.9 µM (inactive); in test [17] it was 32.4 µM (inactive); in test [18], 53.3 µM (inactive). Besides, the GI50 in [19] is > 100 µM (inactive); in [20] it was 64 µM (inactive).

Regarding `O=C1c2c(Br)sc(Br)c2[C@@H](NC(=O)C(F)(F)F)C1Br` (some centres not stated), the GI50 in [1] was 0.631 µM (active); in test [2] it was 16.8 µM (inactive); in [4], 15.3 µM (inactive); in test [5], 2.92 µM (inactive); in [6], 2.31 µM (inactive); in test [7], 2.7 µM (inactive). The GI50 was 2.07 µM (inactive) in [8]; 2.68 µM (inactive) in test [9]; 3.71 µM (inactive) in [10]; 3.57 µM (inactive) in [11]; 3.03 µM (inactive) in test [12]; 2.93 µM (inactive) in test [13]. In addition, the GI50 in test [14] is 3.32 µM (inactive); in test [15], 2.5 µM (inactive); in test [16], 4.92 µM (inactive); in [17], 2.87 µM (inactive); in [18], 2.14 µM (inactive); in test [19], 2.3 µM (inactive). Besides, the GI50 in [20] was 5.53 µM (inactive).

On to `O=C1C(Cl)C(c2cc3cc(Br)ccc3nc2Cl)N1c1ccc(Cl)cc1` (configuration not stated), for which the GI50 in test [1] was 6.95 µM (inactive); in test [2] it was 5.24 µM (inactive); in test [3], 5.31 µM (inactive); in test [4] it was 16.5 µM (inactive); in [5], 3.02 µM (inactive); in test [6], 4.46 µM (inactive). For the same molecule, the GI50 in test [7] is 7.35 µM (inactive); in test [8], 1.64 µM (inactive); in [9], 5.9 µM (inactive); in test [10], 4.51 µM (inactive); in test [11] it was 4.16 µM (inactive); in [12], 4.4 µM (inactive). Besides, the GI50 is 5.41 µM (inactive) in [14]; 4.5 µM (inactive) in [15]; 7.83 µM (inactive) in [16]; 5.53 µM (inactive) in test [17]; 5.13 µM (inactive) in test [18]; 3.43 µM (inactive) in [19]. Moreover, in test [20], the GI50 was 4.26 µM (inactive).

As to `CN1/C(=C/C=C/C=C/C=C2C(=O)c3ccccc3C2=O)C(C)(C)c2ccccc21`, the GI50 in [1] is 36.6 µM (inactive); in test [2] it was > 100 µM (inactive); in test [3] it was > 100 µM (inactive); in test [4], 23.8 µM (inactive); in test [5], 39.6 µM (inactive); in test [6] it was 75.3 µM (inactive). Besides, the GI50 in test [7] is > 100 µM (inactive); in [8], > 100 µM (inactive); in test [9], 44 µM (inactive); in [10], 43.3 µM (inactive); in test [11], 30.8 µM (inactive); in [12] it was 24 µM (inactive). Also, the GI50 in [14] is 20 µM (inactive); in test [15], 25.8 µM (inactive); in test [16] it was 48.6 µM (inactive); in test [17] it was 35.6 µM (inactive); in test [18], 24.2 µM (inactive); in test [19], 15.7 µM (inactive). Also, in [20], the GI50 was 51.9 µM (inactive).

The values above are taken from ChEMBL document CHEMBL1201862, “PubChem BioAssay data set” (2004).
